{"source": "patent US20240208984A1", "about": "“BIVALENT LIGANDS TO UNDERSTAND DIMERIZATION OF THE MU OPIOID RECEPTOR AND THE CHEMOKINE RECEPTOR CCR5 IN NEUROLOGICAL DISORDERS” (priority 2021, published 2024)", "key": {"[1]": {"test_system": "HIV-1BaL Env-pseudotyped Luc-expressing virus", "assay": "HIV-1-Luc infection assay in PBMCs", "type": "cell-based", "details": "non-stimulated PBMCs; 1000 nM", "from_the_text": "Peripheral blood mononuclear cells (PBMCs) include large numbers of CCR5-expressing leukocytes and are susceptible to infection by R5-tropic HIV-1 strains.\nIsolated human PBMCs were obtained commercially from the New York Blood Bank and exempt from Human Subjects criteria (NIH Exemption 4: website located at nih.gov/sites/default/files/exemption_infographic_v7_508c-3-21-19.pdf). The adult PBMCs are publicly available and no information or identifiers are provided so subjects cannot be identified. […] After 3 days in culture, supernatants were harvested, floating cells removed by centrifugation, HIV-1 p24 Ag measured by commercial ELISA (Zeptometrix), and viral aliquots stored at −80° C. […]\nPBMCs were isolated from buffy coats of healthy blood donors by centrifugation in Ficoll gradient (MP Biomedicals). Viable cells, determined by Trypan blue exclusion, were stimulated, or not, for 2 days with 5 μg/mL PHA (Sigma). […]\nAfter 2 days of infection, 100 μL of 2× Luciferase Substrate containing lysing buffer (BRIGHT-GLO™ Luciferase Assay System, Promega) were added per well, plate was agitated for 2 mins (700 rpm) and Luminescence was evaluated using a PHERASTAR® FS plate reader (BMG Labtech)."}}}
{"compound": "CC(C)c1nnc(CCNC(=O)COCC(=O)NCCCCCCCNC(=O)COCC(=O)NC2CC[C@@]3(O)[C@H]4Cc5ccc(O)c6c5[C@@]3(CCN4CC3CC3)[C@H]2O6)n1C1CC2CCC(C1)N2CC[C@H](NC(=O)C1CCC(F)(F)CC1)c1ccccc1", "note": "(stereo partly drawn) [VZMC013]", "values": [{"measurement": "Inhibition of HIV-1-Luc infectivity", "setting": "[1]", "result": "nearly complete blockade"}, {"measurement": "Cytotoxicity TC50", "setting": "GHOST CCR5 cells; GHOST CCR5 cells, XTT, triplicate", "result": ">100", "unit": "µM"}, {"measurement": "cell viability", "setting": "GHOST CCR5 cells; any concentration ≤100 μM, untreated cells = 100%", "result": "~100", "unit": "%"}]}
